Test results taken from US20180273897A1, “MODIFIED T-CELLS HAVING ANTI-FUGETACTIC PROPERTIES AND USES THEREOF” (THE GENERAL HOSPITAL CORPORATION, priority 2015, published 2018).

Tested on: human CD3+ T cells
Conditions: T cells pre-incubated with 0.01 μM to 10 mM AMD3100; harvested after 3 h; anti-fugetactic at lower, fugetactic at higher concentrations
Description: For quantitative transmigration assays, purified human CD3^+ T cells (approximately 2×10^4 cells) are added to the upper chamber of a Transwell® insert in each well, to a total volume of 150 μl of Iscove's modified medium. […] To determine the anti-fugetactic concentration of AMD3100, the T cells are incubated with 0.01 μM to 10 mM AMD3100 prior to addition to the chamber. Cells are harvested from the lower chamber after 3 h, and cell counts are performed using a hemocytometer.

SMILES: c1cc(CN2CCCNCCNCCCNCC2)ccc1CN1CCCNCCNCCCNCC1 [AMD3100, 1,1′[1,4-phenylenebis(methylene)]bis [1,4,8,11-tetraazacyclotetradecane]]
- Effect on T cell migration away from tumor cells (anti-fugetactic versus fugetactic): bimodal effect
